Test systems include A549 NSCLC; HCC-2998 colon; OVCAR-3 ovarian; SK-MEL-2 melanoma; SW-620 colon; 786-0 renal; ACHN renal; BT-549 breast; TK-10 renal; MDA-MB-435.
Experiment in all cases: NCI anticancer screen, dose series, 48 h

Here are results for 16 molecules from PubChem BioAssay (NCI).

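Five concentrations, 48 hours, 96-well plates. GI50: concentration for 50% inhibition of growth. The concentration for full growth arrest is given as TGI.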

As to `Cc1ccccc1-c1nc2c(C(=O)NCCN(C)C)cccc2[nH]1`, the TGI in the assay with A549 NSCLC, in the assay on HCC-2998 colon, in the assay on OVCAR-3 ovarian, in the assay on SK-MEL-2 melanoma and in the assay on SW-620 colon was > 100 µM each time.
In the case of `COc1cc(C2C3=C(COC3=O)Oc3cc4c(cc32)OCO4)cc(OC)c1O` (configuration not stated), the TGI in the assay on 786-0 renal is 15.5 µM; with A549 NSCLC it was > 60.6 µM; in the assay on ACHN renal, 22.9 µM; with BT-549 breast it was > 100 µM; in the assay on HCC-2998 colon, 0.121 µM; in the assay with OVCAR-3 ovarian it was 19.8 µM. Also, the TGI in the assay with SK-MEL-2 melanoma is 2.51 µM; with SW-620 colon, > 100 µM; in the assay on TK-10 renal, 63.8 µM.
Consider `CC(C)/C(Cl)=N\OC(NC(=O)P(=O)(c1ccccc1)c1ccccc1)(C(F)(F)F)C(F)(F)F`, for which the TGI came out at 22.8 µM with 786-0 renal; 42.8 µM with A549 NSCLC; 16.3 µM with ACHN renal; 33.4 µM with HCC-2998 colon; 30.6 µM in the assay with MDA-MB-435; 18.4 µM in the assay with OVCAR-3 ovarian. For the same molecule, the values for the TGI in the assay on SW-620 colon and with TK-10 renal were 53.9 µM and 25.2 µM, respectively.
As to `CC1(C)CC2(CC(C)(C)N1O)NC(=O)OC2=O`, the TGI in the assay with A549 NSCLC, in the assay with HCC-2998 colon, in the assay on OVCAR-3 ovarian, in the assay on SK-MEL-2 melanoma and in the assay with SW-620 colon was > 100 µM each time.
In the case of `O=c1c(-c2ccccc2)c(SCCO)n(-c2ccccc2)c(=S)n1-c1ccccc1`, the TGI in the assay with 786-0 renal, in the assay with A549 NSCLC, with ACHN renal, with BT-549 breast, in the assay on MDA-MB-435 and in the assay with OVCAR-3 ovarian was > 100 µM in each case. In addition, the TGI in the assay on SK-MEL-2 melanoma, with SW-620 colon and with TK-10 renal was > 100 µM each time.
For the molecule `COc1ccc(-c2oc3cc(O)cc(O)c3c(=O)c2OC)cc1`, the TGI is > 100 µM with A549 NSCLC; > 100 µM in the assay on ACHN renal; 62.9 µM with HCC-2998 colon; > 100 µM in the assay on MDA-MB-435; 60.9 µM in the assay with OVCAR-3 ovarian; > 100 µM in the assay on SW-620 colon. Besides, the TGI in the assay with TK-10 renal is > 100 µM.
On to `O=c1[nH]n(Cc2ccccc2)c2ccc([N+](=O)[O-])cc12`, for which the TGI was > 100 µM with 786-0 renal; > 100 µM in the assay on A549 NSCLC; > 100 µM in the assay with ACHN renal; > 100 µM in the assay with HCC-2998 colon; 85.3 µM in the assay with MDA-MB-435; > 100 µM with OVCAR-3 ovarian. Besides, the TGI in the assay with SK-MEL-2 melanoma, in the assay on SW-620 colon and with TK-10 renal was > 100 µM in each case.
Consider `C#CCn1c(=O)c(C)cn(/C(=C\C(=O)OCC)C(=O)OCC)c1=O`, for which the TGI in the assay with 786-0 renal is > 100 µM; in the assay on A549 NSCLC, 39.2 µM; with ACHN renal, 3.22 µM; in the assay on BT-549 breast, 22.8 µM; with MDA-MB-435 it was 21.2 µM; in the assay on OVCAR-3 ovarian, 18.4 µM. Also, the TGI is 32.8 µM in the assay on SK-MEL-2 melanoma, > 100 µM in the assay with SW-620 colon and 3.44 µM in the assay with TK-10 renal. In the assay on SW-620 colon, the GI50 was 2140 nM.
Turning to `COc1ccc(OC)c(SC(CC(=O)c2ccccc2)c2ccccc2)c1` (configuration not stated), the TGI is 29.2 µM in the assay on 786-0 renal; 91.7 µM with A549 NSCLC; 39 µM with ACHN renal; 31.6 µM in the assay on HCC-2998 colon; 26.7 µM with MDA-MB-435; 16.4 µM in the assay on OVCAR-3 ovarian. Besides, the TGI was found to be 36.1 µM with SK-MEL-2 melanoma, 12.2 µM in the assay with SW-620 colon and 32.7 µM in the assay with TK-10 renal.
Turning to `C=CCP(=O)(CC=C)C(Cl)Cl`, the TGI with A549 NSCLC, with ACHN renal, in the assay on HCC-2998 colon, in the assay with OVCAR-3 ovarian, in the assay with SK-MEL-2 melanoma and in the assay with SW-620 colon was > 100 µM in each case. Besides, the TGI in the assay on TK-10 renal was > 100 µM.
As to `CCOP(=O)(O)CN1CCNCCN(CP(=O)(O)OCC)CCNCC1`, the TGI with 786-0 renal, in the assay with A549 NSCLC, in the assay on ACHN renal, in the assay on BT-549 breast, with MDA-MB-435 and in the assay on OVCAR-3 ovarian was > 100 µM each time. The TGI in the assay on SK-MEL-2 melanoma, in the assay on SW-620 colon and with TK-10 renal was > 100 µM in each case.
For the molecule `COc1cccc(C=O)c1[O-].[O]=[U](=[O])([OH2+])[OH2+]`, the TGI was 71.9 µM in the assay with 786-0 renal; > 100 µM in the assay on A549 NSCLC; 79.8 µM in the assay with ACHN renal; > 100 µM in the assay with HCC-2998 colon; 49.4 µM with OVCAR-3 ovarian; > 100 µM in the assay on SK-MEL-2 melanoma. For the same molecule, the TGI is > 100 µM with SW-620 colon and 97.4 µM in the assay on TK-10 renal.
In the case of `O=c1oc(C(C(F)(F)F)C(F)(F)F)nc2ccccc12`, the TGI in the assay with 786-0 renal, in the assay on A549 NSCLC, in the assay on ACHN renal, in the assay on HCC-2998 colon, with MDA-MB-435 and with OVCAR-3 ovarian was > 100 µM throughout. Further, the TGI with SK-MEL-2 melanoma, with SW-620 colon and in the assay on TK-10 renal was > 100 µM in each case.
`Cc1cc(OC(=O)NCn2cc(-c3ccccc3)nn2)ccc1Cl`: the TGI in the assay on 786-0 renal is > 100 µM; in the assay with A549 NSCLC, > 100 µM; in the assay on ACHN renal, > 100 µM; in the assay with BT-549 breast, > 100 µM; in the assay with HCC-2998 colon, 39.2 µM; in the assay with SK-MEL-2 melanoma, > 100 µM. For the same molecule, the TGI in the assay on SW-620 colon and with TK-10 renal was > 100 µM each time.
Take `COC[C@@H](N=Cc1ccc([N+](=O)[O-])cc1)C(C)C`: the TGI in the assay on 786-0 renal, in the assay with A549 NSCLC, in the assay with ACHN renal, with MDA-MB-435, with SK-MEL-2 melanoma and in the assay on SW-620 colon was > 100 µM each time. The TGI with TK-10 renal was > 100 µM.
For the molecule `CC(C)=CCNc1nc(Cl)nc2nc[nH]c12`, the TGI in the assay with 786-0 renal, in the assay with A549 NSCLC, in the assay on ACHN renal, in the assay on HCC-2998 colon, in the assay on MDA-MB-435 and in the assay on OVCAR-3 ovarian was > 100 µM in each case. In addition, the TGI in the assay with SW-620 colon and with TK-10 renal was > 100 µM in each case.
